≈ marks a conversion by molar mass, not a printed value.

The conditions of the data set: buffer; pH 7.4; 200.0 µM.
Regarding `CCOC(=O)C1CCCN(C(=S)Nc2ccc(OC)cc2)C1` (configuration not stated), the solubility (kinetic) (in general, solubility judged after dilution from a stock solution rather than from solid) was 46 µg/mL (≈ 143 µM).

With `Cc1cc(C)cc(OCCn2ccnc2)c1`, the kinetic solubility was determined as 29.3 µg/mL (≈ 135 µM).

Take `O=C(O)C1CCN(C(=O)COc2ccc(Br)cc2)CC1`: the solubility (kinetic) is above 51.3 µg/mL.

Take `O=C(COC(=O)c1ccc(O)cc1)Nc1ccc(S(=O)(=O)N2CCOCC2)cc1`: the solubility (kinetic) was found to be 52.4 µg/mL (≈ 125 µM).

`O=C(COC(=O)c1ccc(F)c(S(=O)(=O)N2CCOCC2)c1)c1ccccc1` yielded a kinetic solubility of 6.3 µg/mL (≈ 15.5 µM).

For the molecule `Cn1cc(SCC(=O)NC2CCCCC2)c2ccccc21`, the kinetic solubility was determined as 9.5 µg/mL (≈ 31.4 µM).

The molecule `COc1ccc(NC(=S)NCc2ccccc2Cl)c(OC)c1` registered a kinetic solubility below 0.4 µg/mL.

The molecule `CC(C)(C)C(=O)N1CCN(C(c2ccccc2)c2ccccc2)CC1` showed a kinetic solubility of 28.3 µg/mL (≈ 84.1 µM).

In turn, `COc1ccccc1OCCNC(=O)C1CCCCC1` returned a solubility (kinetic) of 33.8 µg/mL (≈ 122 µM).

Turning to `O=C(CCOc1ccccc1)Nc1ccccc1F`, the solubility (kinetic) worked out at 37.4 µg/mL (≈ 144 µM).

As to `COc1cccc(/C=C/C(=O)NCc2ccc(S(N)(=O)=O)cc2)c1`, the solubility (kinetic) stood at 12.7 µg/mL (≈ 36.7 µM).

`Cc1cc(C)cc(NC(=O)COC(=O)c2ccc3c(c2)OCCO3)c1` had a solubility (kinetic) of 2.3 µg/mL (≈ 6.74 µM).

As for `COc1ccccc1NC(=O)NCCN1CCNC1=O`, the solubility (kinetic) worked out at 39.7 µg/mL (≈ 143 µM).

Turning to `COc1ccc(OC)c(Cc2nnc(CCC(=O)N3CCCCCC3)o2)c1`, the solubility (kinetic) was above 56 µg/mL.

In turn, `Cc1cccc(C(=O)Nc2ccc3c(c2)nc(C)n3C)c1` displayed a kinetic solubility of 5.5 µg/mL (≈ 19.7 µM).

Molecule `N/C(COc1cc(Cl)cc(Cl)c1)=N\O` displayed a solubility (kinetic) of 34.3 µg/mL (≈ 146 µM).

As for `O=C(CN1C(=O)NC2(CCCC2)C1=O)NCc1ccccc1`, the solubility (kinetic) is above 45.2 µg/mL.

`COc1ccc(Cc2c([O-])[nH]c(=O)[nH]c2=O)c(OC)c1.[NH4+]` registered a solubility (kinetic) of 43.1 µg/mL.

Consider `Cc1cc2oc(=O)c(CC(=O)NCCCO)c(C)c2c2occ(C(C)(C)C)c12`, for which the kinetic solubility is 28 µg/mL (≈ 72.6 µM).

In the case of `CCOC(=O)C1CCN(C(=O)COC(=O)/C=C/c2ccccc2)CC1`, the kinetic solubility is above 51.8 µg/mL.

Turning to `CN(c1ccccc1)c1nc(N)c([N+](=O)[O-])c(N2CCOCC2)n1`, the kinetic solubility was determined as 47.6 µg/mL (≈ 144 µM).

`C=CCn1c(SCC(N)=O)nc2nc3c(cc2c1=O)COC(C)(C)C3`: the solubility (kinetic) is 46.6 µg/mL (≈ 129 µM).

Molecule `O=C(NC(=S)Nc1ccc(O)cc1)C1CCCC1` returned a solubility (kinetic) above 39.7 µg/mL.

Consider `C=CCN1C(=O)NC(=O)/C(=C/c2ccc(OCC(=O)Nc3ccc(C)cc3)cc2)C1=O`, for which the kinetic solubility was above 62.9 µg/mL.

Molecule `CCOC(=O)C1=C(c2ccccc2)OC(N)=C(C#N)C1c1cccnc1` (configuration not stated) had a kinetic solubility of 35.9 µg/mL (≈ 103 µM).

`Cc1noc2ncnc(Oc3ccccc3Cl)c12` showed a solubility (kinetic) of 28 µg/mL (≈ 107 µM).

As to `Cc1cc(=O)oc2cc(OCC(=O)N3CCOCC3)c(Cl)cc12`, the kinetic solubility is above 50.7 µg/mL.

In the case of `O=S(=O)(Nc1cccc(F)c1)c1cccc2nsnc12`, the kinetic solubility is above 46.4 µg/mL.

`O=S(=O)(Nc1ccc(Br)cn1)c1cccs1`: the solubility (kinetic) came to 42.4 µg/mL (≈ 133 µM).

Regarding `CCCOc1ccc(NC(=O)CC2Nc3ccccc3NC2=O)cc1` (configuration not stated), the kinetic solubility came to 2.7 µg/mL (≈ 7.96 µM). This solubility kinetic is about 16-fold lower than that of the molecule before.

The molecule `Cc1nc2ccc([N+](=O)[O-])cc2s1` had a kinetic solubility of 19.4 µg/mL (≈ 99.9 µM).

`Cc1ccc(CNc2ccc3c(c2)nc(C)n3C)cc1` displayed a kinetic solubility of 38.3 µg/mL (≈ 144 µM).

The molecule `Cc1ccc(CNC(=S)NC2CCC(C(C)(C)C)CC2)cc1` (configuration not stated) had a kinetic solubility below 0.3 µg/mL.

Molecule `CCC(=O)N1CCc2nc(-c3ccccc3)sc2C1` registered a kinetic solubility above 40.9 µg/mL.

As for `CCCCC(=O)Nc1ccc(C(=O)N(CC)c2ccccc2C)cc1`, the solubility (kinetic) turned out to be 7.9 µg/mL (≈ 23.3 µM).

The molecule `Cc1cc(NCc2ccccc2)c2ccccc2n1.Cl` yielded a kinetic solubility above 42.7 µg/mL.

`C/C(=N/OC(=O)c1ccc(C(F)(F)F)cc1)c1oc(C)nc1C` came in with a kinetic solubility of 8.1 µg/mL (≈ 24.8 µM).

In turn, `COc1ccccc1N1CCN(C(=O)c2ccc(Br)o2)CC1` yielded a solubility (kinetic) above 54.8 µg/mL.

The molecule `O=c1[nH]c(=O)n(-c2ccc(F)cc2)c(O)c1/C=C1\C=Nc2ccccc21` came in with a kinetic solubility of 1.9 µg/mL (≈ 5.44 µM).

Molecule `COc1ccc(CN(C)C(=O)COC(=O)c2cnc(Cl)c(Cl)c2)cc1` yielded a kinetic solubility of 53.1 µg/mL (≈ 139 µM).

As to `COc1ccc(N2CCCC2)c(NC(=O)COc2ccccc2Cl)c1`, the solubility (kinetic) is 1 µg/mL (≈ 2.77 µM).

Regarding `O=C(/C=C/c1ccccc1)Oc1cccc(C(=S)N2CCOCC2)c1`, the solubility (kinetic) is 4.6 µg/mL (≈ 13 µM).

`COc1ccc(C)cc1Nc1nc(-c2ccccc2O)nc2ccccc12` showed a kinetic solubility below 0.3 µg/mL.

`N#Cc1ccncc1S(=O)c1ccc(Cl)cc1` (configuration not stated) returned a solubility (kinetic) above 39.4 µg/mL.

In turn, `O=C(c1cccs1)N1CCN(c2ncc(Br)cn2)CC1` showed a kinetic solubility of 9.5 µg/mL (≈ 26.9 µM).

The molecule `COc1ccc(S(=O)(=O)NCc2cccnc2)cc1Br` came in with a solubility (kinetic) of 35.5 µg/mL (≈ 99.4 µM).

The molecule `CC(=O)c1cccc(NC(=O)C(CC(C)C)NC(=O)C2CCCCC2)c1` (configuration not stated) yielded a kinetic solubility of 20.2 µg/mL (≈ 56.3 µM).

`Fc1cc(Cl)c(OCc2noc(-c3ccsc3)n2)c(Cl)c1`: the kinetic solubility came out at 0.5 µg/mL (≈ 1.45 µM).

`O=[N+]([O-])c1cccc(Nc2c3ccccc3nc3ccccc23)c1` displayed a kinetic solubility of 2.8 µg/mL (≈ 8.88 µM). This solubility kinetic is about 5.6-fold higher than that of the molecule before.

In the case of `CCCN(Cc1cc2cc(C)ccc2[nH]c1=O)C(=O)c1ccccn1`, the solubility (kinetic) is above 50.3 µg/mL.

On to `O=C(NC(=O)N1CCCc2ccccc21)c1ccccc1`, for which the kinetic solubility was determined as 30.2 µg/mL (≈ 108 µM).

Consider `O=C(O)CCCCCNCc1c(Cl)cccc1Cl`, for which the kinetic solubility is 41.6 µg/mL (≈ 143 µM). This solubility kinetic and that of the molecule before are within 1.5-fold of each other.
